Assays:
[1] = test system: Cellular tumor antigen p53 (Homo sapiens), P04637 [Y220C]; test: Reactivation of N-terminal 6xHis-tagged recombinant p53 Y220C mutant (94 to 292 residues) (unknown origin) protein assessed as stabilization of Protein/DNA complex measuring substrate concentration required to increase DNA binding incubated for 48 mins by TR-FRET assay
[2] = AUC (0 to last) in C57BL/6 mouse at 50 mg/kg, po measured for 24 hrs by LC-MS/MS analysis; assay type: ADME, organism-based; conditions: in vivo
[3] = Cmax in C57BL/6 mouse at 50 mg/kg, po measured for 24 hrs by LC-MS/MS analysis; assay type: ADME, organism-based; conditions: in vivo
NUGC-3 [4] = test: Antitumor activity against human NUGC-3 cells xenografted in female Balb/c nude mouse assessed as tumor growth inhibition at 25 mg/kg, po relative to control; assay type: functional; conditions: read-out: TGI
NUGC-3 [5] = test: Antitumor activity against human NUGC-3 cells xenografted in female Balb/c nude mouse assessed as tumor growth inhibition at 50 mg/kg, po relative to control; assay type: functional; conditions: read-out: TGI

Row | SMILES | EC1.5 [1] [µM] | AUC(0-t) at 24 h [2] [µg·h/mL] | Cmax [3] [ng/mL] | inhibition in vivo at 25 mg/kg (NUGC-3 [4]) [%] | inhibition in vivo at 50 mg/kg (NUGC-3 [5]) [%]
1 | CCn1c2ccccc2c2cc(CNC)ccc21 | 37.2 | – | – | – | –
2 | CNC(=O)c1ccc(NCC#Cc2cc3c(N[C@@H]4CCN(C)C[C@@H]4F)cccc3n2CC(F)(F)F)c(OC)c1 [REZATAPOPT] | 0.009 | 163 | 16600 | 33 | 71
3 | CCn1c(C#CCNc2ccccc2)cc2cc(CNC)ccc21 | 13.6 | – | – | – | –
4 | CCN(CC)C1CCN(Cc2cc(C#CCNc3ccccc3)cc(I)c2O)CC1 | 1.6 | – | – | – | –
5 | CN1CCC(Nc2cccc3c2cc(C#CCNc2ccc(C(C)(C)C#N)nc2)n3CC(F)(F)F)CC1 | 0.054 | – | – | – | –

From ChEMBL document CHEMBL6134835, “Rezatapopt (PC14586): A First-in-Class Small Molecule p53 Y220C Mutant Protein Stabilizer in Clinical Trials” (J Med Chem, 2025)
